Experimental data reported in US20070135307A1, “Inhibition of tuber sprouting” (ACETO AGRICULTURAL CHEMICALS CORP., priority 2005, published 2007).

Legend:
[1] = system: Russet Norkotah potato tubers; test: Sprout inhibition of stored potato tubers, Russet Norkotah (% OK for fresh pack); type: in vivo, Solanum tuberosum
From the text: (§1) The storage system was designed to duplicate a large commercial storage facility in miniature. Drums containing 150-200 pounds of potatoes were sealed and housed in a building in which temperature and humidity could be controlled. Formed in each drum is an inlet in which untreated air (ventilation air) was introduced under a perforated floor to the drum. The ventilation air moves through the pile of potatoes and is exhausted from the top of the drum to the outside of the building.
(§2) This storage ventilation was shut down for a 24 hour duration during and directly after the treatment of the chemicals. Then it is maintained for the duration of the trial, with ventilation air forced through the drums at a rate of 0.5 cubic feet per minute on a three-hour on and a three-hour off schedule.
(§3) In the spray application technique the formulations were mixed with water and sprayed on the newly harvested tubers at a rate of 5 and 10 parts per million (weight of the active to weight of the potatoes) mixed in a water carrier. The mixture was applied at 1 quart per ton of potatoes. The spray was applied via a hand held spray gun propelled with compressed air as the tubers were rotating in a cement mixer drum. This insured that all surface area is coated with the active ingredient.
(§4) The Fogs were all applied with thermal foggers built to duplicate applications of commercial thermal fogging techniques.
(§5) The custom thermal fogger's heat source was an electric hot plate set at 500 degrees F. This temperature is monitored throughout the application with a thermal couple that is inserted in a cavity just below the surface where the chemical is placed. A chamber was attached to the hot plate. A fan was mounted to the top of the chamber. The fogger was attached to the storage container with flexible tubing.
(§6) The fog was delivered to each drum through separate ports. Through the bottom port of the storage drum a perforated stinger was installed that runs the length of the drum. Flexible tubing delivered the fog air mixture from the fogger. The fog air mixture was returned to the thermal fogger through a second flexible tubing that was attached from the top of the storage drum to the bottom of the thermal fogger. The air fog mixture was recirculated through the system for five minutes.
(§7) The potatoes were monitored for sprout activity on a regular basis after treatment. When early sprout activity was observed the potatoes were first evaluated. Then at approximately 30 day intervals, 60 tubers were randomly selected from each treatment. Each tuber was rated for the length of the longest sprout on each tuber. The scale used for the rating system as is follows: • 0-Not Peeping=no sprout or swelling of eye tissue evident. • 1-Peeping=swelling of eye tissue up to a sprout length of 3 mm • 2-sprout length from 3 mm to […]. • 3-sprout length from 1 cm to 3 cm. • 4-sprout length from 3 cm to 5 cm. • 5-sprout length from 5 cm and longer
(§8) Results of each set of 60 tubers were recorded into 6 subsets of 10 tubers each (replicates). The data is summarized into PERCENT OK RE: FRESHPCK (Fresh pack). The PERCENT OK RE: FRESHPCK is the percent of the tubers that are NOT PEEPING and PEEPING categories combined together (i.e., the addition of the percentage of potatoes rated that are in the “0”-Not peeping=(no sprout or swelling of the eye tissue evident) plus “1” Peeping=(swelling of the eye tissue up to a sprout length of 3 mm.).
(§9) Analysis times are approximate days after harvest (DAH)

[2] = system: Russet Burbank potato tubers; test: Sprout inhibition of stored potato tubers, Russet Burbank (% OK for fresh pack); type: in vivo, Solanum tuberosum
From the text: as §1, §2, §3, §4, §5, §6, §7, §8, §9

Row | Compound | % OK For Fresh Pack, Dormant + sprout up to 3 mm ([1]; 5 ppm Spray, 53 DAH) | % OK For Fresh Pack, Dormant + sprout up to 3 mm ([1]; 5 ppm Spray, 85 DAH) | % OK For Fresh Pack, Dormant + sprout up to 3 mm ([1]; 5 ppm Spray, 107 DAH) | % OK For Fresh Pack, Dormant + sprout up to 3 mm ([1]; 10 ppm Spray, 53 DAH) | % OK For Fresh Pack, Dormant + sprout up to 3 mm ([1]; 10 ppm Spray, 85 DAH) | % OK For Fresh Pack, Dormant + sprout up to 3 mm ([1]; 10 ppm Spray, 107 DAH) | % OK For Fresh Pack, Dormant + sprout up to 3 mm ([2]; 5 ppm Spray, 132 DAH) | % OK For Fresh Pack, Dormant + sprout up to 3 mm ([2]; 5 ppm Spray, 161 DAH) | % OK For Fresh Pack, Dormant + sprout up to 3 mm ([2]; 5 ppm Spray, 191 DAH) | % OK For Fresh Pack, Dormant + sprout up to 3 mm ([2]; 5 ppm Spray, 223 DAH) | % OK For Fresh Pack, Dormant + sprout up to 3 mm ([2]; 5 ppm Spray, 252 DAH) | % OK For Fresh Pack, Dormant + sprout up to 3 mm ([2]; 5 ppm Spray, 283 DAH) | also measured
1 | CC(C)OC(=O)Nc1cccc(Cl)c1 [CIPC A, isopropyl 3-chlorophenylcarbamate] |  |  |  |  |  |  |  |  |  |  |  |  | % OK For Fresh Pack, Dormant + sprout up to 3 mm ([1]; 16.6 ppm Fog, 53 DAH): 100.0%; % OK For Fresh Pack, Dormant + sprout up to 3 mm ([1]; 16.6 ppm Fog, 85 DAH): 86.7%; % OK For Fresh Pack, Dormant + sprout up to 3 mm ([1]; 16.6 ppm Fog, 107 DAH): 86.7%
2 | C#CC(C)(C)NC(=O)c1cc(Cl)cc(Cl)c1 [PRO, 3,5-dichloro-N-(1,1-dimethyl-2-propynyl)benzamide] | 100.0% | 90.0% | 18.3% | 100.0% | 80.0% | 28.3% | 100.0% | 83.3% | 71.7% | 61.7% | 60.0% | 50.0% | 
3 | CCOC1Oc2ccc(OS(C)(=O)=O)cc2C1(C)C (racemic) [ETH, (RS)-2-ethoxy-2,3-dihydro-3,3-dimethylbenzofuran-5-yl methanesulfonate] | 68.3% | 11.7% | 0.0% | 93.3% | 33.3% | 3.3% |  |  |  |  |  |  | 
4 | O=C(O)CCCOc1ccc(Cl)cc1Cl [2,4 DB, Dimethyl Amine of 4-(2,4-Dichloropenoxy) butyric acid] | 81.7% | 3.3% | 0.0% | 91.7% | 11.7% | 0.0% |  |  |  |  |  |  | 
5 | CCCCC(CC)COC(=O)COc1ccc(Cl)cc1Cl (stereo not drawn) [2,4 D LV, Isoocotyl (2-ethylhexyl) ester of 2,4-dichlorophenoxyacetic acid] |  |  |  |  |  |  | 96.7% | 30.0% | 8.3% | 0.0% | 0.0% | 0.0% | 
6 | CC(C)(C)[C@@H](O)[C@@H](Cc1ccc(Cl)cc1)n1cncn1 (racemic) [PAC, (2RS,3RS)-1-(4-chlorophenyl)-4,4-dimethyl-2-(1H-1,2,4-triazol-1-yl)pentan-3-ol] | 93.3% | 13.3% | 1.7% | 86.7% | 13.3% | 0.0% |  |  |  |  |  |  | 
7 | CCNC(=O)[C@@H](C)OC(=O)Nc1ccccc1 [Car, Ethyl-2-(((phenylamino)carbonyl)oxy)promanamide] |  |  |  |  |  |  | 93.3% | 8.3% | 0.0% | 0.0% | 0.0% | 0.0% | 
8 | CC(C)OC(=O)Nc1cccc(Cl)c1 [CIPC 98A, isopropyl 3-chlorophenylcarbamate] |  |  |  |  |  |  |  |  |  |  |  |  | % OK For Fresh Pack, Dormant + sprout up to 3 mm ([2]; 11 ppm Fog, 132 DAH): 100.0%; % OK For Fresh Pack, Dormant + sprout up to 3 mm ([2]; 11 ppm Fog, 161 DAH): 26.7%; % OK For Fresh Pack, Dormant + sprout up to 3 mm ([2]; 11 ppm Fog, 191 DAH): 0.0%; % OK For Fresh Pack, Dormant + sprout up to 3 mm ([2]; 11 ppm Fog, 223 DAH): 0.0%; % OK For Fresh Pack, Dormant + sprout up to 3 mm ([2]; 11 ppm Fog, 252 DAH): 0.0%; % OK For Fresh Pack, Dormant + sprout up to 3 mm ([2]; 11 ppm Fog, 283 DAH): 0.0%; % OK For Fresh Pack, Dormant + sprout up to 3 mm ([2]; 16.6 ppm Fog, 132 DAH): 100.0%; % OK For Fresh Pack, Dormant + sprout up to 3 mm ([2]; 16.6 ppm Fog, 161 DAH): 26.7%; % OK For Fresh Pack, Dormant + sprout up to 3 mm ([2]; 16.6 ppm Fog, 191 DAH): 0.0%; % OK For Fresh Pack, Dormant + sprout up to 3 mm ([2]; 16.6 ppm Fog, 223 DAH): 0.0%; % OK For Fresh Pack, Dormant + sprout up to 3 mm ([2]; 16.6 ppm Fog, 252 DAH): 0.0%; % OK For Fresh Pack, Dormant + sprout up to 3 mm ([2]; 16.6 ppm Fog, 283 DAH): 0.0%
9 | CC(=O)Nc1cc(NS(=O)(=O)C(F)(F)F)c(C)cc1C [MEF, N-[2,4-dimethyl-5-[[(trifluoromethyl)sulfonyl]amino]phenyl]acetamide] | 81.7% | 11.7% | 0.0% | 93.3% | 13.3% | 0.0% |  |  |  |  |  |  | 
